The inhibition is the share of the control response that was lost under treatment. In general, IC50 refers to the midpoint of a concentration-inhibition curve. In general, half-life refers to the time in which the quantity being followed falls by half. Lower therefore signals rapid decline.

The target in one data set is T1, rat 17β-HSD1 (Rattus norvegicus, UniProt P51657).
T1 construct: made in house; host or cells: HEK293 cells, transient transfection; 1,000 g supernatant of the cell lysate
T1 sequence (P51657 1-344): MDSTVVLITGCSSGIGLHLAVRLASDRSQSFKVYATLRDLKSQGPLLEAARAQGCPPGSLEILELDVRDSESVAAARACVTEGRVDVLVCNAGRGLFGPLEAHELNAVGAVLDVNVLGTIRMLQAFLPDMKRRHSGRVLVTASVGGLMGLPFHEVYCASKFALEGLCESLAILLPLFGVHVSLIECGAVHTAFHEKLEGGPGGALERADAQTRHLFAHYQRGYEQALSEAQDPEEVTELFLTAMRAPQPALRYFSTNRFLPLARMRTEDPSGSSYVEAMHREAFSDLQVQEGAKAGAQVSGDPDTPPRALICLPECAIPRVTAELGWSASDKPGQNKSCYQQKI
In words: Inhibition of rat 17β-HSD1 (recombinant, HEK293 lysate). To be noted: Cmpd conc. 250 nM; read-out: % Inhibition r17β-HSD1. It counts as biochemical.

Another data set has as its target T2, mouse 17β-HSD1 (Mus musculus, UniProt P51656).
T2 construct: made in house; host or cells: HEK293 cells, transient transfection; 1,000 g supernatant of the cell lysate
T2 sequence (P51656 1-344): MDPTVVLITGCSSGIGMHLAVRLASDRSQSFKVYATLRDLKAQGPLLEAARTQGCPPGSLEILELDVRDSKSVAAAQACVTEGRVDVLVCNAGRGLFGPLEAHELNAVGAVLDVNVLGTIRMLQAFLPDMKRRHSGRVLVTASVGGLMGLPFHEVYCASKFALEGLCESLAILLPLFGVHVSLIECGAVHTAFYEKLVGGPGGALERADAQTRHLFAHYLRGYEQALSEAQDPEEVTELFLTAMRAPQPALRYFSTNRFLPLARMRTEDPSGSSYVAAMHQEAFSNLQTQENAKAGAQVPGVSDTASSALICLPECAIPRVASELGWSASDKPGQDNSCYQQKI
Description: Inhibition of mouse 17β-HSD1 (recombinant, HEK293 lysate). It counts as biochemical. The conditions noted are these: for IC50: read-out: IC50 m17β-HSD1.

A further data set concerns the target T3, mouse 17β-HSD2 (Mus musculus, UniProt P51658).
T3 construct: The pellet fractions containing the microsomal 17β-HSD2 were used for the determination of E1 formation; from tissue; host or cells: mouse liver, microsomal fraction
T3 sequence (P51658 1-381): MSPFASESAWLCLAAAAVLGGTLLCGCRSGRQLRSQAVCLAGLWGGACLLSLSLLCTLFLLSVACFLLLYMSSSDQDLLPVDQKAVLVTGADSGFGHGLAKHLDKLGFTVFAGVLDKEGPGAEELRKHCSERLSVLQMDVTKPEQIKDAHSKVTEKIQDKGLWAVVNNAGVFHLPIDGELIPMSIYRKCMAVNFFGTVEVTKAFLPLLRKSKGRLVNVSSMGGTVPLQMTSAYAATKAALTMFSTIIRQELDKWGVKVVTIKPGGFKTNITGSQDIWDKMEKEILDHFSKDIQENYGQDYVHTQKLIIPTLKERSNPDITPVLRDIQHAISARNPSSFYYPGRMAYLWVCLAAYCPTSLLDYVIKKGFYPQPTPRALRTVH
Description: Inhibition of mouse 17β-HSD2 (liver microsomal fraction). To be noted: for inhibition at 0.1 µM: read-out: % inhibition m17β-HSD2 @ 100 nM; for IC50: read-out: IC50 m17β-HSD2; for inhibition at 0.05 µM: read-out: % inhibition m17β-HSD2 @ 50 nM. It counts as biochemical. For orientation: Liver microsomes are a subcellular fraction often used to study metabolism.

The target of the next data set is T4, human 17β-HSD1 (Homo sapiens, UniProt P14061).
T4 construct: For the partial purification of 17β-HSD1, the cytosolic fraction was precipitated with ammonium sulfate; from tissue; host or cells: human placenta, cytosolic fraction, ammonium sulfate precipitate
T4 sequence (P14061 1-328): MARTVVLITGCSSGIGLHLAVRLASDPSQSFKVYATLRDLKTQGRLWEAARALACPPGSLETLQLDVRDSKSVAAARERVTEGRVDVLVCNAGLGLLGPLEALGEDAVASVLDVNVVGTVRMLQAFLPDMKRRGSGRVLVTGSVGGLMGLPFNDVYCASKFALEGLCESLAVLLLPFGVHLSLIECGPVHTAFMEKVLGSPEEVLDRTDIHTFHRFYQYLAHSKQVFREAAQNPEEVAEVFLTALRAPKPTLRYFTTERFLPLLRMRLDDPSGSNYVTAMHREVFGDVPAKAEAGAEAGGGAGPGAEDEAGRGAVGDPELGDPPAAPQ
Description: Inhibition of human 17β-HSD1 (conversion of [3H]-E1 to E2, HPLC radioflow detection). The data set is classed as biochemical. The conditions noted are these: for IC50: human placental cytosolic enzyme, E1 500 nM, NADH, Tables 1, 4-11, read-out: IC50 [nM] h17β-HSD1; for inhibition at 0.01 µM: read-out: % inhibition h17β-HSD1 @ 10 nM.

The next data set concerns the target T5, human 17β-HSD2 (Homo sapiens, UniProt P37059).
T5 construct: 17β-HSD2 was obtained from the microsomal fraction; from tissue; host or cells: human placenta, microsomal fraction
T5 sequence (P37059 1-387): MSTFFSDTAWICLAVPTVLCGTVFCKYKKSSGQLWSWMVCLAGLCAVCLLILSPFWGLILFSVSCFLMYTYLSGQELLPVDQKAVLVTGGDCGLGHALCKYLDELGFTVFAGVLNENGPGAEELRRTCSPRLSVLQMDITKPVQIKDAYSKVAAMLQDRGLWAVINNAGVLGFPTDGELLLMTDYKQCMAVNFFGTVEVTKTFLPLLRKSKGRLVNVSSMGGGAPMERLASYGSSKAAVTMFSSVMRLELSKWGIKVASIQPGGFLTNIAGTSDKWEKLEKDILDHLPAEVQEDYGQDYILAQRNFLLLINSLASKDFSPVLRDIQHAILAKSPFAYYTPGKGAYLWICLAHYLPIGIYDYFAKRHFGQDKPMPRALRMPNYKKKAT
In words: Inhibition of human 17β-HSD2 (conversion of [3H]-E2 to E1). It counts as biochemical. The conditions noted are these: for inhibition at 0.01 µM: read-out: % inhibition h17β-HSD2 @ 10 nM.

The nature of a further data set: in vitro. The conditions noted are these: human, pooled human liver S9 fraction.
For data set [1] the following is noted: human liver S9, 1 mg/mL; unit not given.
[2] abbreviates: read-out: % inhibition m17β-HSD1 @ 1 μM.
Where [3] appears, read: read-out: Inhibition @ 1 μM m17β-HSD1.
[4] abbreviates: read-out: % inhibition m17β-HSD2 @ 1 μM.

Like-named read-outs stand apart in the source and are kept apart here.

As to `Nc1cccc(-c2ccc(C(=O)c3c(F)ccc(O)c3F)s2)c1` [Compound 1, [5-(3-Aminophenyl)thiophen-2-yl](2,6-difluoro-3-hydroxyphenyl)methanone], the inhibition at […] at rat 17β-HSD1 came to 51%. Further, the inhibition at 1 µM on mouse 17β-HSD1 (setting [2]) and at mouse 17β-HSD1 (setting [3]) was 30% each time.
On to `COc1c(Cl)cc(-c2ccc(C(=O)c3c(F)ccc(O)c3F)s2)cc1Cn1ccnn1` [Compound 31, [5-(3-Chloro-4-methoxy-5-[1,2,3]triazol-1-ylmethyl-phenyl)-thiophen-2-yl]-(2,6-difluoro-3-hydroxy-phenyl)-methanone], for which the values for the inhibition at 1 µM on mouse 17β-HSD2 (read-out: Inhibition @ 1 μM m17β-HSD2) and on mouse 17β-HSD1 (setting [3]) were 84% and 32%, respectively. For the same compound, the inhibition at […] on rat 17β-HSD1 was 39%. Besides, the figures for the 50% inhibitory concentration (IC50) at human 17β-HSD1 and on human 17β-HSD2 (read-out: IC50 [nM] h17β-HSD2) were 2.1 nM and 9 nM, respectively.
Regarding `NC(=O)c1cccc(-c2ccc(C(=O)c3cc(F)c(F)c(O)c3F)s2)c1` [Compound 44, 3-(5-(2,4,5-Trifluoro-3-hydroxybenzoyl)thiophen-2-yl)benzamide], the inhibition at 0.1 µM on mouse 17β-HSD2 came out at 19%; on mouse 17β-HSD1 (read-out: % inhibition m17β-HSD1 @ 100 nM, compound 100 nM), 10%. For the same compound, the concentration for half-maximal inhibition (IC50) is 22.4 nM at human 17β-HSD1 and 6.8 nM on human 17β-HSD2 (read-out: IC50 [nM] h17β-HSD2).
With `COc1c(Cl)cc(-c2ccc(C(=O)c3cc(F)c(F)c(O)c3F)s2)cc1Cl` [Compound 45, (5-(3,5-Dichloro-4-methoxyphenyl)thiophen-2-yl)(2,4,5-trifluoro-3-hydroxyphenyl)methanone], the IC50 at mouse 17β-HSD2 is 89 nM; on mouse 17β-HSD1 (recombinant mouse enzyme, E1 10 nM, NADPH), 1.73 µM; on human 17β-HSD1, 0.6 nM; on human 17β-HSD2 (read-out: IC50 [nM] h17β-HSD2) it was 2.6 nM. In “in vitro”, this compound gave a half-life at 1 µM of 15 min.
Turning to `COc1c(C)cc(-c2ccc(C(=O)c3cc(F)c(F)c(O)c3F)s2)cc1C` [Compound 46, (5-(4-Methoxy-3,5-dimethylphenyl)thiophen-2-yl)(2,4,5-trifluoro-3-hydroxyphenyl)methanone], on mouse 17β-HSD2, the inhibition at 0.1 µM amounted to 16%. For the same compound, the inhibition at 1 µM at mouse 17β-HSD1 (setting [3]) worked out at 13.4%. The IC50 on human 17β-HSD1 came out at 1.2 nM; at human 17β-HSD2 (read-out: IC50 [nM] h17β-HSD2), 2.3 nM.
Turning to `O=C(c1ccc(-c2cccc(CO)c2)s1)c1cc(F)c(F)c(O)c1F` [Compound 47, (5-(3-(Hydroxymethyl)phenyl)thiophen-2-yl)(2,4,5-trifluoro-3-hydroxyphenyl)methanone], the concentration for half-maximal inhibition (IC50) is 260 nM at mouse 17β-HSD2, 5.9 nM at human 17β-HSD1 and 4.4 nM on human 17β-HSD2 (read-out: IC50 [nM] h17β-HSD2). The inhibition at 1 µM on mouse 17β-HSD1 (setting [3]) was found to be 13.8%.
For the compound `Cn1cnc(S(=O)(=O)Nc2cccc(-c3ccc(C(=O)c4cc(F)c(F)c(O)c4F)s3)c2)c1` [Compound 48, 1-Methyl-N-(3-(5-(2,4,5-trifluoro-3-hydroxybenzoyl)thiophen-2-yl)phenyl)-1H-imidazole-4-sulfonamide], the concentration for half-maximal inhibition (IC50) at mouse 17β-HSD2 was 155 nM; on human 17β-HSD1, 21 nM. Besides, on mouse 17β-HSD1 (setting [3]), the inhibition at 1 µM came out at 12.1%. The compound further returned a CLint in data set [1] of 27.9. In the data set “in vitro”, the half-life at 1 µM came out at 24.9 min.
Take `Cc1c(N)cccc1-c1ccc(C(=O)c2cc(F)c(F)c(O)c2F)s1` [Compound 58, (5-(3-Amino-2-methylphenyl)thiophen-2-yl)(2,4,5-trifluoro-3-hydroxyphenyl)methanone]: the inhibition at 0.05 µM at mouse 17β-HSD2 was found to be 40%. Moreover, the CLint in data set [1] is listed as 33.3. The inhibition at 0.01 µM at human 17β-HSD1 is 1.1%; at human 17β-HSD2 it was 61%. The half-life at 1 µM in “in vitro” came to 20.8 min.
In the same order, the values of `O=C(c1ccc(-c2cccc3[nH]ccc23)s1)c1cc(F)c(F)c(O)c1F` [Compound 62, (5-(1H-Indol-4-yl)thiophen-2-yl)(2,4,5-trifluoro-3-hydroxyphenyl)methanone] are 46%, 14.2, 93%, 100% and 48.9 min.
As to `CS(=O)(=O)Nc1cccc(-c2ccc(C(=O)c3cc(F)c(F)c(O)c3F)s2)c1` [Compound 63, N-(3-(5-(2,4,5-trifluoro-3-hydroxybenzoyl)thiophen-2-yl)phenyl)methanesulfonamide], the inhibition at 0.05 µM at mouse 17β-HSD2 came out at 38%. This compound also gave a CLint in data set [1] of 27.7. Moreover, the inhibition at 0.01 µM at human 17β-HSD1 stood at 53%; at human 17β-HSD2 it was 77%. The half-life at 1 µM in “in vitro” was 25 min.
Taken in the same sequence, the figures for `O=C(c1ccc(-c2ccc(O)cc2)s1)c1cc(F)c(F)c(O)c1F` [Compound 68, (5-(4-Hydroxyphenyl)thiophen-2-yl)(2,4,5-trifluoro-3-hydroxyphenyl)methanone] were 42%, 25.3, 66%, 96% and 27.4 min.
In the same order, the values of `Cc1cc(-c2ccc(C(=O)c3cccc(O)c3Cl)s2)cc(C)c1O` [Compound 79, (2-Chloro-3-hydroxyphenyl)(5-(4-hydroxy-3,5-dimethylphenyl)thiophen-2-yl)methanone] are 70%, 31.6, 31%, 64% and 22 min.
For the compound `O=C(c1cccc(O)c1)c1ccc(-c2ccc(O)c(Cl)c2)s1` [D, reference compound], the figures for the inhibition at 1 µM at mouse 17β-HSD2 (setting [4]) and at mouse 17β-HSD1 (setting [2]) were 9% and 42%, respectively. Further, the IC50 at human 17β-HSD1 worked out at 5 nM; on human 17β-HSD2, 240 nM.
On to `Cc1c(O)cccc1C(=O)c1ccc(-c2ccc(O)c(Cl)c2)s1` [E, reference compound], for which the inhibition at 1 µM on mouse 17β-HSD2 (setting [4]) was 92%; on mouse 17β-HSD1 (setting [2]), 14%; on human 17β-HSD1 (read-out: % inhibition h17β-HSD1 @ 1 μM), 76%; on human 17β-HSD2 (read-out: % inhibition h17β-HSD2 @ 1 μM) it was 93%.
`Cc1cc(-c2ccc(C(=O)c3cccc(O)c3C)s2)cc(C)c1O` [G, reference compound]: the IC50 at mouse 17β-HSD2 came out at 546 nM; at mouse 17β-HSD1 (Table 7, unit μM), 35.5 µM; on human 17β-HSD1, 899 nM; at human 17β-HSD2 (read-out: IC50 [nM] h17β-HSD2) it was 239 nM.

The values are drawn from patent US9884839B2, “Inhibitors of 17Beta-hydroxysteroid dehydrogenases type 1 and type 2” (ElexoPharm GmbH, priority 2014, dated 2018).
